Results on 1 molecule are retold here after ChEMBL document CHEMBL4177594, “Design, synthesis, and evaluation of salicyladimine derivatives as multitarget-directed ligands against Alzheimer's disease” (Bioorg Med Chem, 2017).

A short description of data set [1]: in vitro. Also on record: dose or concentration left out as unconfirmed. The note with it: PAMPA. A general note: The PAMPA barrier holds no transporters, so it reflects passive diffusion.
Description: Permeability of the compound at 100 mg/ml after 16 hrs by BBB-PAMPA method
Data set [2] has as its system PC-12. In words: Neuroprotective activity against H2O2-induced apoptosis in rat PC12 cells assessed as late apoptosis cells level at 25 uM after 24 hrs by Annexin V/FITC/propidium iodide staining-based flow cytometry (reference value: 1.9%). It is filed as functional. On the technique in general: A flow cytometer gives signals particle by particle.
The species named for data set [3] is Homo sapiens. The data set is described as follows: Selectivity index, ratio of IC50 for human MAO-A to IC50 for human MAO-B.
Data set [4] concerns PC-12. In words: Neuroprotective activity against H2O2-induced apoptosis in rat PC12 cells assessed as apoptotic cells at 12.5 uM after 24 hrs by Annexin V/FITC/propidium iodide staining-based flow cytometry (reference value: 52.3%). It is filed as functional.
In data set [5] the test system is PC-12. The data set is described as follows: Neuroprotective activity against H2O2-induced apoptosis in rat PC12 cells assessed as viable cells level at 12.5 uM after 24 hrs by Annexin V/FITC/propidium iodide staining-based flow cytometry (reference value: 96.2%). It is filed as functional.
Data set [6] can be described thus: Antioxidant activity assessed as ABTS radical scavenging activity at 25 uM after 6 mins. It is filed as functional.
Data set [7] relates to PC-12. In words: Neuroprotective activity against H2O2-induced apoptosis in rat PC12 cells assessed as apoptotic cells at 25 uM after 24 hrs by Annexin V/FITC/propidium iodide staining-based flow cytometry (reference value: 52.3%). It is filed as functional.
Data set [8] concerns the target T1, Amine oxidase [flavin-containing] A (Homo sapiens, UniProt P21397).
T1 sequence (P21397 whole entry): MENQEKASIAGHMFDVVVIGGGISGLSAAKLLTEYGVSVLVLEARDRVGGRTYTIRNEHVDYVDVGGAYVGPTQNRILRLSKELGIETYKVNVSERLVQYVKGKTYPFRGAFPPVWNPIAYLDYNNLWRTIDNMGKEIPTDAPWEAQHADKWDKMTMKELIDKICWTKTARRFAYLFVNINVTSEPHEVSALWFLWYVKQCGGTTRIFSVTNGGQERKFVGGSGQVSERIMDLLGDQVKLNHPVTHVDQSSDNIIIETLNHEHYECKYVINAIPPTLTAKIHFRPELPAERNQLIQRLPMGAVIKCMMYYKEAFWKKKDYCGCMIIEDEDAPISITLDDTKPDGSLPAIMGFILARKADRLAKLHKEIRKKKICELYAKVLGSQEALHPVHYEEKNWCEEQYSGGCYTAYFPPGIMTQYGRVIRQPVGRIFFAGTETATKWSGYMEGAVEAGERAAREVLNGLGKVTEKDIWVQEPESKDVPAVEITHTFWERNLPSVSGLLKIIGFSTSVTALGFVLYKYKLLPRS
The data set is described as follows: Inhibition of human MAO-A at 200 uM using p-tyramine as substrate preincubated for 15 mins followed by substrate addition measured after 20 mins by fluorescence-based Amplex Red MAO assay.

The subject of data set [9] is PC-12. The data set is described as follows: Neuroprotective activity against 6-OHDA-induced toxicity in rat PC12 cells assessed as increase in cell viability at 10 to 25 uM pretreated for 24 hrs followed by 6-OHDA challenge measured after 24 hrs by MTT assay. It is filed as functional. On the technique in general: Tetrazolium assays rely on reduction of a dye to a coloured formazan, in cell work by metabolically active cells.

The nature of data set [10]: Metal chelating activity assessed as compound-Fe2+ complex formation after 30 mins by UV-Vis spectrophotometry based Job's plot.
Data set [11] concerns PC-12. In words: Neuroprotective activity against H2O2-induced apoptosis in rat PC12 cells assessed as necrosis cells level at 25 uM after 24 hrs by Annexin V/FITC/propidium iodide staining-based flow cytometry (reference value: 0.1%). It is filed as functional.

With `Oc1ccc(/C=N/c2ccc(OCc3ccccc3)cc2)c(O)c1O`, the Papp (commonly a coefficient for how fast a substance crosses the barrier) at 16 h in [1] turned out to be 5.75 ×10⁻⁶ cm/s. Besides, the Activity in data set [2] is 2.7%; in [4], 29.9%; in [5] it was 69.8%; in data set [7], 11.2%; in data set [9], 65.9 - 75.4%; in data set [11] it was 1.1%. Besides, in data set [3], the Ratio IC50 is more than 57.8. In addition, in data set [6], the Activity (umolequiv/umol) amounted to 0.67. The “inhibition (INH)” value in [8] was “Not Active”. For the same molecule, in data set [10], the log K amounted to 6.3.
